Our source for the GI50 and TGI values is PubChem BioAssay (NCI).

Common to all, as to test: NCI-60 cell line screen, 48 h
Experiment [1] deals with MDA-MB-231 breast.
The subject of experiment [2] is U251 CNS.
Experiment [3] deals with OVCAR-8 ovarian.
Experiment [4] has as its system HCC-2998 colon.
Experiment [5] concerns IGROV1 ovarian.
For experiment [6], the system named is NCI-H226 lung.
Experiment [7] relates to HCT-116 colon.
For experiment [8], the system named is NCI/ADR-RES ovarian.
For experiment [9], the system named is SK-OV-3 ovarian.
Experiment [10] has as its system CAKI-1 renal.

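These data come from cells grown in 96-well plates and exposed to compound for 48 hours at five concentrations. GI50 = concentration required for 50% inhibition of growth. The concentration for full growth arrest is given as TGI.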

On to `CN1CCN(c2nc(NCCCCNc3ccnc4cc(Cl)ccc34)c3ccccc3n2)CC1`, for which the GI50 in experiment [1] was 2.14 µM; in experiment [2], 3.27 µM; in [3] it was 4.25 µM; in [4], 2.59 µM; in [5] it was 3.49 µM; in [6] it was 20.7 µM. Also, the GI50 in experiment [7] was 2.58 µM; in experiment [8], 19 µM; in [9], 18 µM. In addition, the TGI in experiment [1] was found to be 5.93 µM; in experiment [2], 10.1 µM; in experiment [3], 20.1 µM; in [4], 7.12 µM; in [5], 19 µM; in experiment [6], 45.8 µM. In addition, the TGI was found to be 11.7 µM in experiment [7], 56.1 µM in experiment [8] and 41.2 µM in experiment [9].
Turning to `Cc1ccc(/C=C2/SC(Nc3nc(-c4nc(NC5=NC(=O)/C(=C\c6ccc(C)cc6)S5)sc4C)c(C)s3)=NC2=O)cc1`, the GI50 was 1.36 µM in experiment [1]; 0.322 µM in experiment [2]; 1.66 µM in experiment [3]; 1.71 µM in experiment [4]; 7.29 µM in experiment [5]; 0.484 µM in experiment [10]. Also, the figures for the GI50 in experiment [6], in experiment [7] and in experiment [8] were 2.32 µM, 9.2 µM and 0.435 µM, respectively. Also, the TGI in [1] is 19.9 µM; in experiment [2], 38.9 µM; in experiment [3], greater than 31.6 µM; in experiment [4], 9.92 µM; in experiment [5], greater than 50 µM; in [10], 9.41 µM. Besides, the TGI in experiment [6] is greater than 30.4 µM; in experiment [7], 20.9 µM; in experiment [8], greater than 12.7 µM.
Consider `NC(=NC1CCCCCCC1)c1ccc(N2CCN(c3ccc(C(N)=NC4CCCCCCC4)cc3)CC2)cc1`, for which the GI50 was 12.5 µM in [1]; 2.96 µM in experiment [2]; 4.9 µM in [3]; 14.4 µM in experiment [4]; 53.1 µM in experiment [5]; 23.1 µM in [10]. Besides, the GI50 was 11.5 µM in experiment [6], greater than 100 µM in [8] and 15.2 µM in [9]. The TGI was 30.6 µM in [1]; 15.3 µM in experiment [2]; 30 µM in experiment [3]; 48 µM in [4]; greater than 100 µM in experiment [5]; 63.1 µM in experiment [10]. Also, the TGI in experiment [6] is 39.1 µM; in experiment [8], greater than 100 µM; in experiment [9], 34.9 µM.
As for `CN(CC(=O)O)c1ccc(/C=C/c2ccnc3ccccc23)cc1`, the TGI in experiment [1] is greater than 100 µM; in experiment [2], 75.2 µM; in experiment [3], greater than 100 µM; in [4], 53 µM; in experiment [5], 39.4 µM; in experiment [10], 66.1 µM. Besides, the TGI in [7] is 69.8 µM; in experiment [8], greater than 100 µM; in experiment [9], 91.6 µM.
Consider `CC(CN1CCN(C)CC1)CN1c2ccccc2Sc2ccc(C(F)(F)F)cc21` (configuration not stated), for which the GI50 in [1] was 1.36 µM; in experiment [2] it was 1.68 µM; in experiment [3], 1.76 µM; in [4], 1.63 µM; in experiment [5], 2.77 µM; in [10] it was 2.6 µM. Also, the values for the GI50 in experiment [6], in [7] and in [8] were 2.6 µM, 1.68 µM and 1.94 µM, respectively. Further, the TGI in experiment [1] worked out at 2.82 µM; in experiment [2], 3.12 µM; in experiment [3], 3.34 µM; in experiment [4], 3.07 µM; in experiment [5], 10.2 µM; in [10] it was 11 µM. Further, the TGI in [6] came out at 8.51 µM; in experiment [7], 3.07 µM; in [8] it was 4.94 µM.
Consider `COc1ccc(-c2cc(-c3ccccc3)nc(N3CCN(CCNc4ccnc5cc(Cl)ccc45)CC3)n2)cc1`, for which the GI50 in [1] is 1.81 µM; in [2], 1.56 µM; in [4], 1.46 µM; in experiment [5], 1.48 µM; in [10] it was 2.97 µM; in [6], 4.14 µM. The results for the GI50 in experiment [8] and in [9] were 1.72 µM and 10.3 µM, respectively. The TGI in experiment [1] came to 3.43 µM; in experiment [2], 3.45 µM; in [4] it was 3.02 µM; in [5], 3.19 µM; in experiment [10] it was 12.1 µM; in experiment [6] it was 25.1 µM. Also, the TGI in experiment [8] is 4.04 µM; in experiment [9] it was 22 µM.
On to `CCCCCCC#Cc1ccccc1C#CCO`, for which the GI50 in [1] is greater than 100 µM; in [2], 16.4 µM; in experiment [3] it was 21.7 µM; in experiment [4] it was 23.7 µM; in experiment [5], 18 µM; in experiment [10] it was 14.6 µM. The GI50 in experiment [7] is 23.4 µM; in experiment [8], 18.7 µM; in experiment [9], 18.4 µM. Besides, the TGI in [1] was greater than 100 µM; in experiment [2], 34.6 µM; in [3], 46.8 µM; in [4], 42.6 µM; in [5] it was 43.3 µM; in [10], 33.2 µM. In addition, the TGI in [7] turned out to be 49.6 µM; in experiment [8], 34.4 µM; in [9], 34.4 µM.
Turning to `COc1cc2c3c(n(CCCNCC(OC)OC)c(=O)c2cc1OC)-c1cc2c(cc1C3=O)OCO2`, the GI50 was 3.09 µM in experiment [1]; 4.32 µM in [2]; 8.31 µM in [3]; 10.3 µM in [5]; 0.219 µM in experiment [10]; 6.63 µM in experiment [6]. Also, the GI50 in experiment [7] was 0.0172 µM; in experiment [8], 0.338 µM; in experiment [9], 22.8 µM. Besides, the TGI in [1] is 20 µM; in experiment [2], greater than 48.6 µM; in experiment [3], 38.4 µM; in experiment [5], greater than 74.4 µM; in [10], 17.2 µM; in experiment [6] it was 42.5 µM. For the same compound, the TGI is 1.31 µM in experiment [7], 29.3 µM in experiment [8] and greater than 100 µM in [9].
Consider `Cc1ccc(NC(=O)c2cc3ccccc3c(N=Nc3ccccc3O)c2O)c(C)c1`, for which the TGI in experiment [1] was 8.77 µM; in [3], 3.7 µM; in experiment [4], 18.7 µM; in experiment [5], 13.5 µM; in [10] it was 11.4 µM; in [6], 13.1 µM. The values for the TGI in experiment [7], in experiment [8] and in experiment [9] were 2.2 µM, 5.71 µM and 16.7 µM, respectively.
